The record followed here is patent US6197963A, “Non-peptide peptidomimetics” (The Trustees of the University of Pennsylvania, priority 1998, dated 2001).

“Also recorded” adds a separate entry of the source. Like-named read-outs stand apart in the source and are kept apart here.

The target in test [1] is T1, human neurokinin-1 receptor (NK1R) (Homo sapiens, UniProt P25103).
T1 construct: expressed in transfected cells; host or cells: COS cells
Briefly: Displacement of 125I-substance P from human NK1R expressed in COS cells (Example 12). The class given is binding. The note with it: 125I-substance P, COS cells (Example 12). As for the experimental part:
The affinity of a variety of compounds for the substance P receptor was determined employing the following procedure.
To express the cloned human neurokinin-1 receptor (NK1R) transiently in COS, the cDNA for the human NK1R was cloned into the expression vector pCDM9 which was derived from pCDM8 (Invitrogen) by inserting the ampicillin resistance gene (nucleotide 1973 to 2964 from Bluescript SK+) into the Sac II site. Transfection of 20 μg of the plasmid DNA into 10 million COS cells was achieved by electroporation in 800 μl of the transfection buffer ([…], 1.2 mM MgCl2, 2.4 mM K2 HPO4, 0.6 mM KH2PO4, […], 10 mM HEPES pH 7.4) at 260 V and 950 μF using the IBI Genezapper (IBI, New Haven, Conn.). The cells were incubated in 10% fetal calf serum, 2 mM glutamine, 100 U/ml penicillin-streptomycin, and 90% DMEM media (Gibco, Grand Island, N.Y.) in 5% CO2 at 37° C. for three days before the binding assay.
The binding assay of human NK1R expressed in COS cells is based on the use of ^125 I-substance P (^125 I-SP, from DuPont, Boston, Mass.) as a radioactively labeled ligand which competes with unlabeled substance P or any other ligand for binding to the human NK1R. Monolayer cell cultures of COS were dissociated by the non-enzymatic solution (Specialty Media, Lavallette, N.J.) and resuspended in appropriate volume of the bind buffer (50 mM Tris pH 7.5, 5 mM MnCl2, 150 mM NaCl, 0.04 mg/ml bacitracin, 0.004 mg/ml leupeptin, 0.2 mg/ml BSA, 0.01 mM phosphoramidon) such that 200 μl of the cell suspension would give rise to about 10,000 cpm of specific ^125 I-SP binding (approximately 50,000 to 200,000 cells). In the binding assay, 200 μl of cells were added to a tube containing 20 μl of 1.5 to 2.5 nM of ^125 I-SP and 20 μl of unlabeled substance P or any other test compound. The tubes were incubated at 4° C. or at room temperature for 1 hour with gentle shaking. The bound radioactivity was separated from unbound radioactivity by GF/C filter (Brandel, Gaithersburg, Md.) which was pre-wetted with 0.1 polyethylenimine. The filter was washed with 3 ml of wash buffer (50 Tris pH 7.5, 5 mM MnCl2, 150 mM NaCl) three times and its radioactivity was determined by gamma counter.
A variety of compounds were tested according to the COS cell procedure. The concentration of compound required to inhibit the binding of substance P to the human neurokinin-1 receptor by 50% was measured.

For test [2], the system named is SRIF receptors on AtT-20 cells. The experiment in a line: Binding at SRIF receptors of AtT-20 cells (Examples 104-110, Tables 1-3). More on the design: species or system mouse.
The target of test [3] is hSSTR5 (Homo sapiens, UniProt P35346). The experiment in a line: Binding at human SRIF receptor subtype hSSTR5. The note with it: for Ki: TABLE 3, read-out: hSSTR 5 Ki.
For test [4], the target named is hSSTR4 (Homo sapiens, UniProt P31391). Briefly: Binding at human SRIF receptor subtype hSSTR4.
Test [5] deals with hSSTR1 (Homo sapiens, UniProt P30872). The experiment in a line: Binding at human SRIF receptor subtype hSSTR1.
The test system of test [6] is five hSSTRs. The experiment in a line: Profile / average over the five human SRIF receptor subtypes. The test is classed as binding.
The target in test [7] is hSSTR2 (Homo sapiens, UniProt P30874). Briefly: Binding at human SRIF receptor subtype hSSTR2.
The target of test [8] is hSSTR3 (Homo sapiens, UniProt P32745). Briefly: Binding at human SRIF receptor subtype hSSTR3.
The subject of test [9] is SRIF receptor. Briefly: Displacement of 125I-CGP-23996 from SRIF receptor on AtT-20 cells (Example 13). The class given is binding, mouse. The conditions noted are these: displacement of 125I-CGP-23996, AtT-20 cells (Example 13).
The target of test [10] is NK-1 receptor (Homo sapiens, UniProt P25103). Briefly: Binding at the NK-1 receptor (Examples 109-110).
Setting [11] is: TABLE 1 (Example 105), read-out: AtT-20 cells 50 IC.
Where [12] appears, read: read-out: IC50 at AtT-20 cell membranes.
Setting [13] is: read-out: IC50 at the NK-1 receptor.

Sequence of hSSTR4 (P31391 whole entry): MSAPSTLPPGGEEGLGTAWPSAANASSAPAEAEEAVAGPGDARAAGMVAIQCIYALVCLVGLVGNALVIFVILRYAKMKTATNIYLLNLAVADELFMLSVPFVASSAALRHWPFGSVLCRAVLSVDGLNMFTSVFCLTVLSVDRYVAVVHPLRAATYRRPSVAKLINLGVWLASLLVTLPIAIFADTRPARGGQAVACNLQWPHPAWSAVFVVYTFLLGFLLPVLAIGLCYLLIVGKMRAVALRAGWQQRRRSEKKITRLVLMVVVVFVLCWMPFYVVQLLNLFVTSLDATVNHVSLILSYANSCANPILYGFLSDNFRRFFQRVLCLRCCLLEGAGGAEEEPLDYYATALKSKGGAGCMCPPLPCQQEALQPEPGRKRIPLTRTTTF
Sequence of hSSTR5 (P35346 whole entry): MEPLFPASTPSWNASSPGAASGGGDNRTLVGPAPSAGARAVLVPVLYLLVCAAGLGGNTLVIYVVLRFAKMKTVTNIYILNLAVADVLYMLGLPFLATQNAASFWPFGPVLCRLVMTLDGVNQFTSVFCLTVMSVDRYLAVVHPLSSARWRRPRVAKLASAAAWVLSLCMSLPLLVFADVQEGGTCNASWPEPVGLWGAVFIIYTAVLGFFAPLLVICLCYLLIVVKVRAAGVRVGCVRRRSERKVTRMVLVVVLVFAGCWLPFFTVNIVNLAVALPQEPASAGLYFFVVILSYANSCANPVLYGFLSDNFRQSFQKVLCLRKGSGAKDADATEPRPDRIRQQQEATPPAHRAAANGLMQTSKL
Sequence of hSSTR3 (P32745 whole entry): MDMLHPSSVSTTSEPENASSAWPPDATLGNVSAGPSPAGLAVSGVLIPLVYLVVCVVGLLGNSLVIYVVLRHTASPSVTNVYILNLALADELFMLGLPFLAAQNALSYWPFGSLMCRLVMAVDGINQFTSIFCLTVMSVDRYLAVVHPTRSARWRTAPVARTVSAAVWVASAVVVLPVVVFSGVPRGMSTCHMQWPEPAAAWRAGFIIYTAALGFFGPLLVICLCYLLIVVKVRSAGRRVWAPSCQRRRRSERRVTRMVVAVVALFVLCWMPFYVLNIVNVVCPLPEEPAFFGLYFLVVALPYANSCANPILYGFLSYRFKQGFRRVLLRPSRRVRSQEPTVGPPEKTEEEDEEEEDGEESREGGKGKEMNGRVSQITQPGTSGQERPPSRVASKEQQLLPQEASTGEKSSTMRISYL
Sequence of hSSTR2 (P30874 whole entry): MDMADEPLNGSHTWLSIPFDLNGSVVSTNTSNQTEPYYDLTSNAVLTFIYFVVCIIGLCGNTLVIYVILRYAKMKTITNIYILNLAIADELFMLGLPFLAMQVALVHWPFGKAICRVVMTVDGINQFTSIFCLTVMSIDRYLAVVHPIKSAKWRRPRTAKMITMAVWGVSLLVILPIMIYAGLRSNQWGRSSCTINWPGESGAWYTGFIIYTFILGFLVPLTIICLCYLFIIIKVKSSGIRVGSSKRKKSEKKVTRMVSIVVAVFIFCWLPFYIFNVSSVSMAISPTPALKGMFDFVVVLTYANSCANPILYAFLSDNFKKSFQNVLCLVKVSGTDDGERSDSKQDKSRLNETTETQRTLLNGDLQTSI
Sequence of NK-1 receptor (P25103 whole entry): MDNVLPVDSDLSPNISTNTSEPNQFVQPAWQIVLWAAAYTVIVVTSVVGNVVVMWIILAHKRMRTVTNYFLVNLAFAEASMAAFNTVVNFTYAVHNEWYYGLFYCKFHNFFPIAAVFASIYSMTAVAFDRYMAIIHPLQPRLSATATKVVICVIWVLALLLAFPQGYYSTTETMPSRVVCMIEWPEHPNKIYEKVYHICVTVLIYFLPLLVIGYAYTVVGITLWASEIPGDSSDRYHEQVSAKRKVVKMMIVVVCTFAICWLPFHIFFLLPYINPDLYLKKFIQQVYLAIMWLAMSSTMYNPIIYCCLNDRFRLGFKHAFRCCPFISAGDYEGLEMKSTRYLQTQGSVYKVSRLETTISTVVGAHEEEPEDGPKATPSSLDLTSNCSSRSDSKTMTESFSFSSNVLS
Sequence of hSSTR1 (P30872 whole entry): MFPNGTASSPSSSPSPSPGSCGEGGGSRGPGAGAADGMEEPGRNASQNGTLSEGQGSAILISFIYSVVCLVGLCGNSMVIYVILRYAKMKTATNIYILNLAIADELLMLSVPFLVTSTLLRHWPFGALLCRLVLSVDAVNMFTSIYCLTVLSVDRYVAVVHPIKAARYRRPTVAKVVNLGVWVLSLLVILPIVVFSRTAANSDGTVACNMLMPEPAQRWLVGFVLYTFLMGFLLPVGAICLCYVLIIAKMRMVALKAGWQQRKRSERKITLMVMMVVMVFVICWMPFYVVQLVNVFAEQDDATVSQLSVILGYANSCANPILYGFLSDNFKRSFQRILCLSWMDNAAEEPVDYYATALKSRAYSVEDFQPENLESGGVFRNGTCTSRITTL
T1 sequence (P25103 whole entry): as the sequence (P25103 whole entry) above

On to `OC[C@@H]1C[C@H](OCc2ccccc2)[C@@H](OCc2ccccc2)[C@H](OCCc2c[nH]c3ccccc23)O1` [2-Indol-3-yl-ethyl-2,3,-di-O-benzyl-4-deoxy-β-D-glucopyranoside], for which, in [1], the IC50 was 400 nM.

On to `NCCCCCCOC[C@H]1O[C@@H](OCCc2c[nH]c3ccccc23)[C@H](OCc2ccccc2)C[C@@H]1OCc1ccccc1` [III-5b, 2-(1H-Indol-3-yl)ethyl 2,4-Di-O-benzyl-3-deoxy-6-O-(6-aminohexyl)-β-D-glucopyranoside], for which the IC50 in [2] (setting [11]) stood at 7000 nM.

Turning to `CO[C@@H]1O[C@H](COCCCCCN)[C@@H](OCc2ccccc2)[C@H](OCc2ccccc2)[C@H]1OCc1ccccc1` [III-8a, Methyl 2,3,4-Tri-O-benzyl-6-O-(5-aminopentyl)-β-D-glucopyranoside], the Ki in test [3] was 3000 nM; in [4] (TABLE 3, read-out: hSSTR 4 Ki) it was 2000 nM; in [5] (TABLE 3, read-out: hSSTR 1 Ki), 2400 nM; in test [7] (TABLE 3, read-out: hSSTR 2 Ki) it was 4600 nM; in test [8] (TABLE 3, read-out: hSSTR 3 Ki), 3000 nM. The IC50 was 5900 nM in test [2] (setting [11]); 5900 nM in [2] (TABLE 3 (Example 108), read-out: AtT-20 IC50); 5900 nM in [2] (setting [12]). Further, the “hSSTR subtype affinity profile” value in test [6] is “highest affinity for hSSTR4”.

For `CO[C@@H]1O[C@H](COCCCCCN)C[C@H](OCc2ccccc2)[C@H]1OCc1ccccc1` [III-10, Methyl 2,3-Di-O-benzyl-4-deoxy-6-O-(5-aminopentyl)-β-D-glucopyranoside], the “activity / affinity at SRIF receptors of AtT-20 cells” value in test [2] is “inactive”. Moreover, the IC50 in [2] (setting [11]) was over 10000 nM.

Turning to `CO[C@@H]1O[C@H](CO)[C@@H](OCc2ccccc2)[C@H](OCc2ccccc2)[C@H]1OCc1ccccc1` [III-46], the values for the IC50 in test [1] and in [9] were 1000 nM and “does not bind”, respectively.

With `NCCCCCOC[C@@H]1O[C@H](OCCc2c[nH]c3ccccc23)[C@@H](OCc2ccccc2)[C@H](OCc2ccccc2)[C@H]1OCc1ccccc1` [IV-11, 2-(1H-Indol-3-yl)ethyl 2,3,4-tri-O-benzyl-6-O-(5'-aminopentyl)-β-L-glucopyranoside], the IC50 in test [10] (setting [13]) came out at 150 nM. Moreover, the Ki in test [4] (TABLE 3, read-out: hSSTR 4 Ki) is 2000 nM; in test [8] (TABLE 3, read-out: hSSTR 3 Ki), 6400 nM. The “hSSTR subtype affinity profile” value in test [6] was “high affinities for hSSTR2 and hSSTR4 and a low affinity for SSTR1; also recorded: higher relative affinity for SSTR5 and a lesser relative affinity for SSTR3”.

Consider `NCCCCCOC[C@@H]1O[C@H](OCCc2c[nH]c3ccccc23)[C@H](OCc2ccccc2)[C@H](OCc2ccccc2)[C@H]1OCc1ccccc1` [IV-22, 2-(1H-Indol-3-yl)ethyl 2,3,4-tri-O-benzyl-6-O-(5'-aminopentyl)-β-L-mannopyranoside], for which the Ki in test [4] (TABLE 3, read-out: hSSTR 4 Ki) came out at 1900 nM; in test [8] (TABLE 3, read-out: hSSTR 3 Ki), 3300 nM. Also, the “hSSTR subtype affinity profile” value in test [6] was “high affinities for hSSTR2 and hSSTR4 and a low affinity for SSTR1”.

Consider `CO[C@@H]1O[C@H](COCCCCCN)[C@@H](OCc2ccccc2)[C@H](OCc2ccccc2)[C@H]1OCc1c[nH]cn1` [IV-30, Methyl 2-O-(4'-methylene-1H-imidazole)-3,4-di-O-benzyl-6-O-(5'-aminopentyl)-β-D-glucopyranoside], for which the IC50 in test [2] (setting [11]) is over 10000 nM.

Consider `CO[C@@H]1O[C@H](COCCCCCN)[C@@H](OCc2ccccc2)[C@H](OCc2c[nH]cn2)[C@H]1OCc1ccccc1` [IV-39, Methyl 2,4-di-O-benzyl-3-O-(4'-methylene-1H-imidazole)-6-O-(5'-aminopentyl)-β-D-glucopyranoside], for which the IC50 in test [2] (setting [11]) and in [2] (setting [12]) was 5600 nM in each case.

In the case of `NCCCCCOC[C@@H]1O[C@H](OCCc2c[nH]c3ccccc23)[C@H](OCc2c[nH]cn2)[C@H](OCc2ccccc2)[C@H]1OCc1ccccc1` [IV-72, 2-(1H-indol-3-yl)ethyl 2-O-(4'-methylene-1H-imidazole)-3,4-di-O-benzyl-6-O-(5'-amino-pentyl)-β-L-mannopyranoside], the “binding of SSTR5” value in test [3] is recorded as “failed to bind SSTR5”. Further, the Ki was over 10000 nM in test [3]; 100 nM in test [4] (TABLE 3, read-out: hSSTR 4 Ki); 100 nM in [4] (read-out: Ki at SSTR 4); 300 nM in test [5] (TABLE 3, read-out: hSSTR 1 Ki); 300 nM in [5] (read-out: Ki at SSTR 1); 800 nM in test [7] (TABLE 3, read-out: hSSTR 2 Ki). For the same molecule, the Ki came out at 800 nM in test [7] (read-out: Ki at SSTR 2); 900 nM in test [8] (TABLE 3, read-out: hSSTR 3 Ki); 900 nM in test [8] (read-out: Ki at SSTR 3).

Take `Fc1ccc(COC[C@H]2O[C@@H](OCCc3c[nH]c4ccccc34)[C@H](OCc3ccc4ccccc4c3)[C@@H](OCc3ccccc3)[C@@H]2OCc2ccccc2)cc1` [IV-79, (+)-2-(1H-indol-3-yl)ethyl-3,4-di-O-benzyl-6-O-(4-fluorobenzyl)-2-O-(2-naphthyl)methyl-β-D-glucopyranoside]: in [10], the “binding of the NK-1 receptor” value is listed as “did not bind the NK-1 receptors”.

Regarding `Fc1ccc(OC[C@H]2O[C@@H](OCCc3c[nH]c4ccccc34)[C@H](OCc3ccc4ccccc4c3)[C@@H](OCc3ccccc3)[C@@H]2OCc2ccccc2)cc1` [IV-81, (+)-2-(1H-indol-3-yl)ethyl-3,4-di-O-benzyl-6-O-(4-fluorophenyl)-2-O-(2-naphthyl)methyl-β-D-glucopyranoside], in [10], the “binding of the NK-1 receptor” value is on record as “did not bind the NK-1 receptors”.

In the case of `Fc1ccc(CO[C@H]2[C@H](OCCc3c[nH]c4ccccc34)O[C@H](COCc3ccc4ccccc4c3)[C@@H](OCc3ccccc3)[C@@H]2OCc2ccccc2)cc1` [IV-84, (+)-2-(1H-inclol-3-yl) ethyl-3, li-di-O-Benzyl 2-O-(4-fluorobenzyl)-B-D-glucopyranoside], the “binding of the NK-1 receptor” value in test [10] is on record as “did not bind the NK-1 receptors”.

`CC(=O)NCCCCCOC[C@H]1O[C@@H](OCCc2c[nH]c3ccccc23)[C@H](OCc2ccc3ccccc3c2)[C@@H](OCc2ccccc2)[C@@H]1OCc1ccccc1` [IV-92, (+)-2-(1H-indol-3-yl)ethyl-6-O-(N-acetyl-5-aminopentyl)-3,4-di-O-benzyl-2-O-(2-naphthyl)methyl-β-D-glucopyranoside]: the “binding of the NK-1 receptor” value in [10] is on record as “did not bind the NK-1 receptors”. Besides, in test [10] (setting [13]), the IC50 stood at 209 nM.

Consider `CC(=O)NCCCCCOC[C@H]1O[C@@H](OCCc2c[nH]c3ccccc23)[C@H](OCc2ccccc2)[C@@H](OCc2ccccc2)[C@@H]1O` [IV-99, (-)-2-(1H-indol-3-yl)ethyl-6-O-(N-acetyl-5-aminopentyl)-2,3-di-O-benzyl-β-D-glucopyranoside], for which the IC50 in test [10] (read-out: affinity at the NK-1 receptor) worked out at 27 nM.

Consider `CC(C)[C@@H]1NC(=O)[C@H](CCCCN)NC(=O)[C@@H](Cc2c[nH]c3ccccc23)NC(=O)[C@H](Cc2ccc(O)cc2)NC(=O)[C@H](C)N(C)C(=O)[C@H](Cc2ccccc2)NC1=O` [MK 678, reference compound], for which the IC50 in test [9] (read-out: IC50) came to 60 nM.
